In PMC9186362, “Design and biological evaluation of substituted 5,7-dihydro-6H-indolo[2,3-c]quinolin-6-one as novel selective Haspin inhibitors” (Journal of Enzyme Inhibition and Medicinal Chemistry, 2022):

Experiments:
Assay in all cases: SelectScreen ZLYTE
Format in all cases: biochemical
[1] = molecular target: T1, PASK (Homo sapiens, UniProt Q96RG2); conditions: ATP Km, read-out: Percentage of inhibition
T1 construct: purchased Life Technologies (SelectScreen Whole Panel)
Method: (§1) We further evaluated the selectivity profile of compound 55 on a larger panel of kinases (SelectScreen Whole Panel, Life Technologies). The inhibition profile of 55, evaluated at 1 μM, is depicted on a dendrogram on Figure 3 where kinases inhibited by a minimum of 80% are shown. A full list of the kinases tested is shown on Table S1 in supplementary information.

[2] = molecular target: T2, FGFR2 N549H (Homo sapiens, UniProt P21802, N549H); conditions: ATP Km, read-out: Percentage of inhibition
T2 construct: purchased Life Technologies (SelectScreen service)
Method: as §1

[3] = molecular target: T3, FGFR2 (Homo sapiens, UniProt P21802); conditions: ATP Km, read-out: Percentage of inhibition
T3 construct: purchased Life Technologies
Method: as §1

[4] = molecular target: T4, AMPK A1/B1/G1 (Homo sapiens, UniProt Q13131); conditions: ATP Km, read-out: Percentage of inhibition
T4 construct: purchased Life Technologies (SelectScreen Whole Panel service)
Method: as §1

[5] = molecular target: T5, SGK (SGK1) (Homo sapiens, UniProt O00141); conditions: ATP Km, read-out: Percentage of inhibition
T5 construct: purchased Life Technologies
Method: as §1

[6] = molecular target: T6, PRKG2 (PKG2) (Homo sapiens, UniProt Q13237); conditions: ATP Km, read-out: Percentage of inhibition
T6 construct: purchased Life Technologies
Method: as §1

[7] = molecular target: T7, DYRK1B (Homo sapiens, UniProt Q9Y463); conditions: ATP Km, read-out: Percentage of inhibition
T7 construct: purchased Life Technologies
Method: as §1

[8] = molecular target: T8, MAPK3 (ERK1) (Homo sapiens, UniProt P27361); conditions: ATP Km, read-out: Percentage of inhibition
T8 construct: purchased Life Technologies
Method: as §1

[9] = molecular target: T9, MERTK (Homo sapiens, UniProt Q12866); conditions: ATP Km, read-out: Percentage of inhibition
T9 construct: purchased Life Technologies (SelectScreen Whole Panel service)
Method: as §1

[10] = molecular target: T10, FES (FPS) (Homo sapiens, UniProt P07332); conditions: ATP Km, read-out: Percentage of inhibition
T10 construct: purchased Life Technologies (SelectScreen service)
Method: as §1

[11] = molecular target: T11, FRK (PTK5) (Homo sapiens, UniProt P42685); conditions: ATP Km, read-out: Percentage of inhibition
T11 construct: purchased Life Technologies
Method: as §1

[12] = molecular target: T12, STK23 (MSSK1) (Homo sapiens, UniProt Q9UPE1); conditions: ATP Km, read-out: Percentage of inhibition
T12 construct: purchased Life Technologies
Method: as §1

[13] = molecular target: T13, EPHA2 (Homo sapiens, UniProt P29317); conditions: ATP Km, read-out: Percentage of inhibition
T13 construct: purchased Life Technologies
Method: as §1

[14] = molecular target: PRKCZ (PKC zeta) (Homo sapiens, UniProt Q05513); conditions: ATP Km, read-out: Percentage of inhibition
Method: as §1

[15] = molecular target: T14, FLT1 (VEGFR1) (Homo sapiens, UniProt P17948); conditions: ATP Km, read-out: Percentage of inhibition
T14 construct: purchased Life Technologies (SelectScreen Whole Panel service)
Method: as §1

[16] = molecular target: T15, CHEK2 (CHK2) (Homo sapiens, UniProt O96017); conditions: ATP Km, read-out: Percentage of inhibition
T15 construct: purchased Life Technologies
Method: as §1

[17] = molecular target: PAK4 (Homo sapiens, UniProt O96013); conditions: ATP Km, read-out: Percentage of inhibition
Method: as §1

[18] = molecular target: T16, HIPK4 (Homo sapiens, UniProt Q8NE63); conditions: ATP Km, read-out: Percentage of inhibition
T16 construct: purchased Life Technologies (SelectScreen service)
Method: as §1

[19] = molecular target: MKNK1 (MNK1) (Homo sapiens, UniProt Q9BUB5); conditions: ATP Km, read-out: Percentage of inhibition
Method: as §1

[20] = molecular target: KDR (VEGFR2) (Homo sapiens, UniProt P35968); conditions: ATP Km, read-out: Percentage of inhibition
Method: as §1

[21] = molecular target: T17, PDGFRB (PDGFR beta) (Homo sapiens, UniProt P09619); conditions: ATP Km, read-out: Percentage of inhibition
T17 construct: purchased Life Technologies (SelectScreen service)
Method: as §1

[22] = molecular target: T18, NTRK3 (TRKC) (Homo sapiens, UniProt Q16288); conditions: ATP Km, read-out: Percentage of inhibition
T18 construct: purchased Life Technologies
Method: as §1

[23] = molecular target: T19, DCAMKL1 (DCLK1) (Homo sapiens, UniProt O15075); conditions: ATP Km, read-out: Percentage of inhibition
T19 construct: purchased Life Technologies
Method: as §1

[24] = molecular target: T20, NTRK2 (TRKB) (Homo sapiens, UniProt Q16620); conditions: ATP Km, read-out: Percentage of inhibition
T20 construct: purchased Life Technologies (SelectScreen service)
Method: as §1

[25] = molecular target: T21, EPHA1 (Homo sapiens, UniProt P21709); conditions: ATP Km, read-out: Percentage of inhibition
T21 construct: purchased Life Technologies
Method: as §1

[26] = molecular target: MAPK1 (ERK2) (Homo sapiens, UniProt P28482); conditions: ATP Km, read-out: Percentage of inhibition
Method: as §1

[27] = molecular target: STK24 (MST3) (Homo sapiens, UniProt Q9Y6E0); conditions: ATP Km, read-out: Percentage of inhibition
Method: as §1

[28] = molecular target: CDC42 BPA (MRCKA) (Homo sapiens, UniProt Q5VT25); conditions: ATP Km, read-out: Percentage of inhibition
Method: as §1

[29] = molecular target: T22, AURKB (Aurora B) (Homo sapiens, UniProt Q96GD4); conditions: ATP Km, read-out: Percentage of inhibition
T22 construct: purchased Life Technologies
Method: as §1

[30] = molecular target: T23, ALK (Homo sapiens, UniProt Q9UM73); conditions: ATP Km, read-out: Percentage of inhibition
T23 construct: purchased Life Technologies (SelectScreen service)
Method: as §1

[31] = molecular target: PRKCH (PKC eta) (Homo sapiens, UniProt P24723); conditions: ATP Km, read-out: Percentage of inhibition
Method: as §1

[32] = molecular target: T24, NEK6 (Homo sapiens, UniProt Q9HC98); conditions: ATP Km, read-out: Percentage of inhibition
T24 construct: purchased Life Technologies (SelectScreen)
Method: as §1

[33] = molecular target: T25, MAPK8 (JNK1) (Homo sapiens, UniProt P45983); conditions: ATP 10 µM, read-out: Percentage of inhibition
T25 construct: purchased Life Technologies (SelectScreen Whole Panel service)
Method: as §1

[34] = molecular target: HIPK1 (Myak) (Homo sapiens, UniProt Q86Z02); conditions: ATP Km, read-out: Percentage of inhibition
Method: as §1

[35] = molecular target: T26, RPS6KB2 (p70S6Kb) (Homo sapiens, UniProt Q9UBS0); conditions: ATP Km, read-out: Percentage of inhibition
T26 construct: purchased Life Technologies (SelectScreen)
Method: as §1

[36] = molecular target: T27, PAK3 (Homo sapiens, UniProt O75914); conditions: ATP Km, read-out: Percentage of inhibition
T27 construct: purchased Life Technologies
Method: as §1

[37] = molecular target: T28, ACVR1B (ALK4) (Homo sapiens, UniProt P36896); conditions: ATP Km, read-out: Percentage of inhibition
T28 construct: purchased Life Technologies (SelectScreen Whole Panel)
Method: as §1

[38] = molecular target: T29, CAMK2B (CaMKII beta) (Homo sapiens, UniProt Q13554); conditions: ATP Km, read-out: Percentage of inhibition
T29 construct: purchased Life Technologies (SelectScreen Whole Panel service)
Method: as §1

[39] = molecular target: T30, PLK3 (Homo sapiens, UniProt Q9H4B4); conditions: ATP Km, read-out: Percentage of inhibition
T30 construct: purchased Life Technologies (SelectScreen service)
Method: as §1

T2 sequence (P21802 22-821 N549H): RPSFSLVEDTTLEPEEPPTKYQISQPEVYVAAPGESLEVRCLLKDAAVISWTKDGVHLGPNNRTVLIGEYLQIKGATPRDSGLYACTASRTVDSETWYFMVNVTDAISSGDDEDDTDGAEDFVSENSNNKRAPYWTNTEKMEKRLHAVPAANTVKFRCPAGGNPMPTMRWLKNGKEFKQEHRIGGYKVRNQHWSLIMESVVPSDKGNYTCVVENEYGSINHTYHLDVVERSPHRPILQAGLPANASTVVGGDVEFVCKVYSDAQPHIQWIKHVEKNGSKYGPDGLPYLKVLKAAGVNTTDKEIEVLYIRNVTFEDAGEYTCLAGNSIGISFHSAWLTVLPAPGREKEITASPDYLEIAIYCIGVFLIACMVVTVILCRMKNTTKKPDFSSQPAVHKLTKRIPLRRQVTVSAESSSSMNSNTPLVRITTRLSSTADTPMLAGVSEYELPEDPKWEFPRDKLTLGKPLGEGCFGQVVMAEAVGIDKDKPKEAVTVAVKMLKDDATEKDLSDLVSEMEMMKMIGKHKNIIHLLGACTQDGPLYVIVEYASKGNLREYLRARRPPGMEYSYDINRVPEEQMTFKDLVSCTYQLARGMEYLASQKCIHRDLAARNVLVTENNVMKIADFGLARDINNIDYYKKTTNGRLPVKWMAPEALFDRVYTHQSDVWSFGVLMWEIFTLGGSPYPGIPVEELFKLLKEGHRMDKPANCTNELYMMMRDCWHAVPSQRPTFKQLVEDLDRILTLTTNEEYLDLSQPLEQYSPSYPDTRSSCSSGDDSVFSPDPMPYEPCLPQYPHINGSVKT
Chain of MKNK1 (MNK1) (Q9BUB5 whole entry): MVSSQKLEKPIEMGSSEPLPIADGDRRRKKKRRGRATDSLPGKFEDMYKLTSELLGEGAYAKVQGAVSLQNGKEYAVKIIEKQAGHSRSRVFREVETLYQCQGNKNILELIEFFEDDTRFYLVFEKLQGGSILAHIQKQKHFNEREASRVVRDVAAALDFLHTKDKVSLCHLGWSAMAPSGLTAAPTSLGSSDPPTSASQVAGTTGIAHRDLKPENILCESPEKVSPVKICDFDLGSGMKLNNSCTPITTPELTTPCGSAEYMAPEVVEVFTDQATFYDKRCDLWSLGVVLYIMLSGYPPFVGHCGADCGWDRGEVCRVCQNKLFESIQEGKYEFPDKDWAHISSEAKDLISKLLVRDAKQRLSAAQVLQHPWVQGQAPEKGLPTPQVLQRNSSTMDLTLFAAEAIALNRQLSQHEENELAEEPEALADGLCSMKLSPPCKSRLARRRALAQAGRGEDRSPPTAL
T15 sequence (O96017 whole entry): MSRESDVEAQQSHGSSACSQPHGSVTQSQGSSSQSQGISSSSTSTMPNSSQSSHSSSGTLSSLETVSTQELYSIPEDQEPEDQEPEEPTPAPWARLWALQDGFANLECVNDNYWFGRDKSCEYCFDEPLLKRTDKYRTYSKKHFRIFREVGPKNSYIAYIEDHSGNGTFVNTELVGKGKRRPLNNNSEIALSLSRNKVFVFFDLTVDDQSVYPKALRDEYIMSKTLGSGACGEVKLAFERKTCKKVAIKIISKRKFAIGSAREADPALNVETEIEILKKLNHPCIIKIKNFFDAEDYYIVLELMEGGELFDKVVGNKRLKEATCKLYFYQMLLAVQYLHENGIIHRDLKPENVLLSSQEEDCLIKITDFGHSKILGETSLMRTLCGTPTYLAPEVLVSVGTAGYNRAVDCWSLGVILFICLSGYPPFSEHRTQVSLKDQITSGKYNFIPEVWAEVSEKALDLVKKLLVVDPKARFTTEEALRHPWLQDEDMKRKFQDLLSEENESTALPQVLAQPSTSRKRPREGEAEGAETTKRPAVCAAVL
T14 sequence (P17948 27-1338): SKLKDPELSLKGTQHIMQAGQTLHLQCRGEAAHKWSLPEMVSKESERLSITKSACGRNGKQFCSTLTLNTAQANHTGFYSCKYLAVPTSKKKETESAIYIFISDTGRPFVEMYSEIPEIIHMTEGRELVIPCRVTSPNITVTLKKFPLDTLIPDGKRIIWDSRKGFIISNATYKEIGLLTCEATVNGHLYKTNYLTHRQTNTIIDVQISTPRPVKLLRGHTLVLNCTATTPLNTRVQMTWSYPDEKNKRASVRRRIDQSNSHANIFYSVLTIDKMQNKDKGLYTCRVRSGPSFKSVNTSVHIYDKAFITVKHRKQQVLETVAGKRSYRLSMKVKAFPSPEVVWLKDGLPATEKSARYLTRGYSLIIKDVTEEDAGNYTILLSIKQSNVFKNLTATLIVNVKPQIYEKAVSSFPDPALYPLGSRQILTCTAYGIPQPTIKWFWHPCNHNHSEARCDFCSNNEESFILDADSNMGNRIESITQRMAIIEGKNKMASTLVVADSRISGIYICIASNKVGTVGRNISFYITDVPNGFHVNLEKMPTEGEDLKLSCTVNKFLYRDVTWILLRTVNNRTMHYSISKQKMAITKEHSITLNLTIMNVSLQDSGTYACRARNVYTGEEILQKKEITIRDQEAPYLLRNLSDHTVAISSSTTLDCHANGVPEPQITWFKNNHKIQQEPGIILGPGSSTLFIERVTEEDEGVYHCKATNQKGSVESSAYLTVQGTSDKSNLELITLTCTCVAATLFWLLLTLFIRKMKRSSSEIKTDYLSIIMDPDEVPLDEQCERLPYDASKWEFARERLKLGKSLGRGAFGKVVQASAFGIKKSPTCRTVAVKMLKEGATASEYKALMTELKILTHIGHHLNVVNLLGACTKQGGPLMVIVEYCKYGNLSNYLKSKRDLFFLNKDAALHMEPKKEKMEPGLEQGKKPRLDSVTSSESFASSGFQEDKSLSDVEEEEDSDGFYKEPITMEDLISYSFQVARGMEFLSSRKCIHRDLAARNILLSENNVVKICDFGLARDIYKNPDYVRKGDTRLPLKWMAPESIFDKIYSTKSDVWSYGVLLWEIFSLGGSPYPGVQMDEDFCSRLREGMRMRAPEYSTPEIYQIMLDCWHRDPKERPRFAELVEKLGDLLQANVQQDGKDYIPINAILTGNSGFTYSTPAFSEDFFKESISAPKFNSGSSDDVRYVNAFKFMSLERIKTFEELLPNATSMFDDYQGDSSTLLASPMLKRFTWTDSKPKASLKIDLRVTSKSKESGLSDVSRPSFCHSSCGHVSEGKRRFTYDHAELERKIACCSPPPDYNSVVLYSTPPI
T12 sequence (Q9UPE1 whole entry): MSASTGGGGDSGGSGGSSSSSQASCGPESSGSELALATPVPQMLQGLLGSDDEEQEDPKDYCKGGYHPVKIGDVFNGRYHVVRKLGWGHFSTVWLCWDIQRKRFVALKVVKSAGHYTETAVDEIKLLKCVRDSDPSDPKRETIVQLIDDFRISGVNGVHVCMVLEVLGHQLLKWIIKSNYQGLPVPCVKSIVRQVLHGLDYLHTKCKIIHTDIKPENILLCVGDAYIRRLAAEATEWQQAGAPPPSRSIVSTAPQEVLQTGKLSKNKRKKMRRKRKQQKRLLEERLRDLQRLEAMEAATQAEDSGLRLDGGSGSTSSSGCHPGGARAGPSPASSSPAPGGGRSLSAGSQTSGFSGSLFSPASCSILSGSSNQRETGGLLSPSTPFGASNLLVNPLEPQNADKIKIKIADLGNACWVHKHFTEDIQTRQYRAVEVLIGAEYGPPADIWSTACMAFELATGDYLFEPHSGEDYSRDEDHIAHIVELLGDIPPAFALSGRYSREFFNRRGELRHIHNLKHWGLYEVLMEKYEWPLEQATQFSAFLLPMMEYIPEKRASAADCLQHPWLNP
Chain of PRKCZ (PKC zeta) (Q05513 whole entry): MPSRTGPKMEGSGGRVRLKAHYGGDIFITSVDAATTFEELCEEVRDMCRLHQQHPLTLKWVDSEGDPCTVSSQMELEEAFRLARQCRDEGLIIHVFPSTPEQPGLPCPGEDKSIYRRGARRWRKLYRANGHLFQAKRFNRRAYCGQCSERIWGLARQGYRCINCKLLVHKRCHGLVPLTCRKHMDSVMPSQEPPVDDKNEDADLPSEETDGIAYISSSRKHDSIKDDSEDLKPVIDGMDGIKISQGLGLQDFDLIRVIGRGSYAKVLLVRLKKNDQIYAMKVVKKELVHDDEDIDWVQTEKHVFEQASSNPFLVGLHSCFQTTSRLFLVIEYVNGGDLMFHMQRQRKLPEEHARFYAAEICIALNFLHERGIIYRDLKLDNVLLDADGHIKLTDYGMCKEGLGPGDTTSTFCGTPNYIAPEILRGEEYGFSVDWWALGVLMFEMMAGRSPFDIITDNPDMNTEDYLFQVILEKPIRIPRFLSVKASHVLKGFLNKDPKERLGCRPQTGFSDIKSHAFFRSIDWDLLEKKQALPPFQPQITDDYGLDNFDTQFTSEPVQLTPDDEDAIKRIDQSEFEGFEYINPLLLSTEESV
T5 sequence (O00141 whole entry): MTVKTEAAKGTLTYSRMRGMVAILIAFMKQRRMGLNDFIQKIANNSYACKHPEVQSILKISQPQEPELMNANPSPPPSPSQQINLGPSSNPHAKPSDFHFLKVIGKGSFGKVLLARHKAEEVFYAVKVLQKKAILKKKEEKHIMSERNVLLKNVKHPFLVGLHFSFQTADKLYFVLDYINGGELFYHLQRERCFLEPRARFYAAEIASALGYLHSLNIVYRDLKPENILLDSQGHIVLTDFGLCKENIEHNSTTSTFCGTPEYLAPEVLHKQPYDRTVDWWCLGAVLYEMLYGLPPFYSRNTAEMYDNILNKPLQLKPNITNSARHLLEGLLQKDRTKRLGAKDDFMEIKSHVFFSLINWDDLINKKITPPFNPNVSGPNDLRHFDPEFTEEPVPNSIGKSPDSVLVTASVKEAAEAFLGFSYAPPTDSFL
T24 sequence (Q9HC98 whole entry): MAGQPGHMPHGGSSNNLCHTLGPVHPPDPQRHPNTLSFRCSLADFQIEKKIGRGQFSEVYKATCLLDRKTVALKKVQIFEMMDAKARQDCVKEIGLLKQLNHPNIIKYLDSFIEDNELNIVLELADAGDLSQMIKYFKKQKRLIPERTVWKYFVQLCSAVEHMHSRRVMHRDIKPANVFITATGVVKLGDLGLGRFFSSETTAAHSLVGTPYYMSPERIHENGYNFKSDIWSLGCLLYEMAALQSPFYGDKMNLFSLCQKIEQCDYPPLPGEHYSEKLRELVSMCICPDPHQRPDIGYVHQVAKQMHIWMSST

COc1ccc2[nH]c3c(=O)[nH]c4ccc(O)cc4c3c2c1 [Compound 55, 2-Hydroxy-10-methoxy-5,7-dihydro-6H-indolo[2,3-c]quinolin-6-one]
inhibition at 1 µM [1]: 49% | inhibition at 1 µM [2]: 24% | inhibition at 1 µM [3]: 42% | inhibition at 1 µM [4]: 47% | inhibition at 1 µM [5]: 29% | inhibition at 1 µM [6]: 37% | inhibition at 1 µM [7]: 96% | inhibition at 1 µM [8]: 27% | inhibition at 1 µM [9]: 44% | inhibition at 1 µM [10]: 25% | inhibition at 1 µM [11]: 33% | inhibition at 1 µM [12]: 4% | inhibition at 1 µM [13]: 40% | inhibition at 1 µM [14]: 7% | inhibition at 1 µM [15]: 10% | inhibition at 1 µM [16]: 33% | inhibition at 1 µM [17]: 15% | inhibition at 1 µM [18]: 24% | inhibition at 1 µM [19]: 7% | inhibition at 1 µM [20]: 67% | inhibition at 1 µM [21]: 23% | inhibition at 1 µM [22]: 93% | inhibition at 1 µM [23]: 2% | inhibition at 1 µM [24]: 80% | inhibition at 1 µM [25]: 33% | inhibition at 1 µM [26]: 19% | inhibition at 1 µM [27]: 63% | inhibition at 1 µM [28]: 13% | inhibition at 1 µM [29]: 41% | inhibition at 1 µM [30]: 24% | inhibition at 1 µM [31]: 15% | inhibition at 1 µM [32]: 8% | inhibition at 1 µM [33]: 15% | inhibition at 1 µM [34]: 58% | inhibition at 1 µM [35]: 8% | inhibition at 1 µM [36]: 5% | inhibition at 1 µM [37]: -13% | inhibition at 1 µM [38]: 12% | inhibition at 1 µM [39]: 25%
